Measured values reported in ChEMBL document CHEMBL1221235, “Novel Notch-sparing gamma-secretase inhibitors derived from a peroxisome proliferator-activated receptor agonist library” (Bioorg Med Chem Lett, 2010).
The source made the active and inactive calls. No cut-off for these calls is given here.

Legend:
[1] = target: T1, Gamma-secretase (Homo sapiens) (UniProt Q96BI3+Q9NZ42+Q8WW43+P49768+Q92542+P49810); test: Inhibition of gamma-secretase in HEK293 cells co-overexpressing APP Swedish mutant assessed as inhibition of amyloid beta 40 production at 100 uM by luciferase reporter gene assay relative to DAPT; format: cell-based; conditions: for residual activity: values are per cent of control
[2] = target: T1, Gamma-secretase (Homo sapiens); test: Inhibition of gamma-secretase in HEK293 cells co-overexpressing APP Swedish mutant assessed as inhibition of amyloid beta 40 production at 1 uM by luciferase reporter gene assay relative to DAPT; format: cell-based; conditions: values are per cent of control
[3] = target: T1, Gamma-secretase (Homo sapiens); test: Inhibition of gamma-secretase in HEK293 cells co-overexpressing APP Swedish mutant assessed as inhibition of amyloid beta 42 production at 1 uM by luciferase reporter gene assay relative to DAPT; format: cell-based; conditions: values are per cent of control
[4] = target: T1, Gamma-secretase (Homo sapiens); test: Inhibition of gamma-secretase in HEK293 cells co-overexpressing APP Swedish mutant assessed as inhibition of amyloid beta 42 production at 100 uM by luciferase reporter gene assay relative to DAPT; format: cell-based; conditions: for residual activity: values are per cent of control
[5] = target: T1, Gamma-secretase (Homo sapiens); test: Inhibition of gamma-secretase in HEK293 cells co-overexpressing NotchdeltaE assessed as inhibition of notch cleavage at 100 uM by luciferase reporter gene assay relative to DAPT; format: cell-based; conditions: values are per cent of control
Gamma-secretase [6] = test: Inhibition of gamma-secretase in HEK293 cells co-overexpressing APP Swedish mutant assessed as inhibition of amyloid beta 42 production by luciferase reporter gene assay; format: cell-based, Homo sapiens
Gamma-secretase [7] = test: Inhibition of gamma-secretase in HEK293 cells co-overexpressing APP Swedish mutant assessed as inhibition of amyloid beta 40 production by luciferase reporter gene assay; format: cell-based, Homo sapiens
Gamma-secretase [8] = test: Inhibition of gamma-secretase in HEK293 cells co-overexpressing NotchdeltaE assessed as inhibition of notch cleavage by luciferase reporter gene assay; format: cell-based, Homo sapiens
[9] = target: T1, Gamma-secretase (Homo sapiens); test: Inhibition of gamma-secretase in HEK293 cells co-overexpressing NotchdeltaE assessed as inhibition of notch cleavage at 1 uM by luciferase reporter gene assay relative to DAPT; format: cell-based; conditions: for residual activity: values are per cent of control
[10] = target: T1, Gamma-secretase (Homo sapiens); test: Inhibition of gamma-secretase in HEK293 cells co-overexpressing APP Swedish mutant assessed as inhibition of amyloid beta 42 production at 30 uM by luciferase reporter gene assay relative to DAPT; format: cell-based; conditions: values are per cent of control
[11] = target: T1, Gamma-secretase (Homo sapiens); test: Inhibition of gamma-secretase in HEK293 cells co-overexpressing APP Swedish mutant assessed as inhibition of amyloid beta 40 production at 3 uM by luciferase reporter gene assay relative to DAPT; format: cell-based; conditions: values are per cent of control
[12] = target: T1, Gamma-secretase (Homo sapiens); test: Inhibition of gamma-secretase in HEK293 cells co-overexpressing APP Swedish mutant assessed as inhibition of amyloid beta 42 production at 3 uM by luciferase reporter gene assay relative to DAPT; format: cell-based; conditions: values are per cent of control
[13] = target: T1, Gamma-secretase (Homo sapiens); test: Inhibition of gamma-secretase in HEK293 cells co-overexpressing APP Swedish mutant assessed as inhibition of amyloid beta 40 production at 30 uM by luciferase reporter gene assay relative to DAPT; format: cell-based; conditions: values are per cent of control
[14] = target: T1, Gamma-secretase (Homo sapiens); test: Inhibition of gamma-secretase in HEK293 cells co-overexpressing NotchdeltaE assessed as inhibition of notch cleavage at 3 uM by luciferase reporter gene assay relative to DAPT; format: cell-based; conditions: values are per cent of control
[15] = target: T1, Gamma-secretase (Homo sapiens); test: Inhibition of gamma-secretase in HEK293 cells co-overexpressing NotchdeltaE assessed as inhibition of notch cleavage at 30 uM by luciferase reporter gene assay relative to DAPT; format: cell-based; conditions: values are per cent of control

Compound `CCC(Cc1ccc(OC)c(CNC(=O)c2ccc(OCC(F)(F)F)cc2)c1)C(=O)O` (stereo unspecified) has a residual activity [1] of 136%, a residual activity [2] of 118% and a residual activity [3] of 119%. The residual activity [4] was 133% and the residual activity [5] was 84%.

For `CC[C@H](Cc1ccc(OC)c(C(=O)NCc2ccc(C(F)(F)F)cc2)c1)C(=O)O`, the IC50 (Gamma-secretase [6]) was 34.2 µM, the inhibition [1] was “Active” and the IC50 (Gamma-secretase [7]) was 37.8 µM. The IC50 (Gamma-secretase [8]) was greater than 100 µM and the inhibition [4] was “Active”.

`CCC(Cc1ccc(OC)c(C(=O)NCc2ccc(C(F)(F)F)cc2)c1)C(=O)O` (stereo unspecified) was tested, and the residual activity [9] was 102%, the residual activity [1] was 41% and the residual activity [2] was 82%. The residual activity [3] was 88.5%, the residual activity [4] was 15.2% and the residual activity [5] was 8.9%.

For `CSc1ccc(/C=C2/C(C)=C(CC(=O)O)c3cc(F)ccc32)cc1` [SULINDAC SULFIDE], the residual activity [10] was 60.3%, the residual activity [11] was 98.4% and the IC50 (Gamma-secretase [6]) was 82.5 µM. It also gave a residual activity [12] of 97.1%, a residual activity [13] of 88.6% and a residual activity [14] of 90.7%. The IC50 (Gamma-secretase [7]) was 215 µM, the IC50 (Gamma-secretase [8]) was 53 µM and the residual activity [15] was 43.9%.

In the case of `COc1ccc(CCC(=O)O)cc1CNC(=O)c1ccc(C(F)(F)F)cc1`, the residual activity [1] is reported as 112%, the residual activity [2] is reported as 104% and the residual activity [3] is reported as 102%. The residual activity [4] was 104%.

With `COc1ccc(CC(C)C(=O)O)cc1CNC(=O)c1ccc(C(F)(F)F)cc1` (stereo unspecified) the residual activity [1] was 132%, the residual activity [2] was 114% and the residual activity [3] was 109%. For the same compound, the residual activity [4] was 139%.

With `CC/C(=C\c1ccc(OC)c(C(=O)NCc2ccc(C(F)(F)F)cc2)c1)C(=O)O` the IC50 (Gamma-secretase [6]) was 22.4 µM, the IC50 (Gamma-secretase [7]) was 32.7 µM and the IC50 (Gamma-secretase [8]) was greater than 100 µM.

For `CC[C@@H](Cc1ccc(OC)c(C(=O)NCc2ccc(C(F)(F)F)cc2)c1)C(=O)O`, the IC50 (Gamma-secretase [6]) was greater than 100 µM, the inhibition [9] was “Active” and the IC50 (Gamma-secretase [7]) was greater than 100 µM. It also gave an IC50 (Gamma-secretase [8]) of 24 µM.

`CCC(Cc1ccc(F)c(C(=O)NCc2ccc(OC(F)(F)F)cc2)c1)C(=O)O` (stereo unspecified) gave a residual activity [9] of 67.2%, a residual activity [1] of 42.6% and a residual activity [2] of 90.6%. For the same compound, the residual activity [3] was 87.4%, the residual activity [4] was 55.7% and the residual activity [5] was 0%.

`CCC(Cc1ccc(OC)c(CNC(=O)c2ccc(C(F)(F)F)cc2)c1)C(=O)O` (stereo unspecified) gave a residual activity [9] of 31.2%, a residual activity [2] of 89.5% and a residual activity [3] of 101%. The residual activity [5] was 0%.

With `CCC(Cc1ccc(F)c(C(=O)NCc2ccc(Oc3ccccc3)cc2)c1)C(=O)O` (stereo unspecified) the residual activity [9] was 6.3%, the residual activity [1] was 63.2% and the residual activity [2] was 89.8%. It also gave a residual activity [3] of 99.7%, a residual activity [4] of 106% and a residual activity [5] of 6.8%.

Work on `CCC(Cc1ccc(OC)c(CNC(=O)c2ccc(Oc3ccccc3)cc2)c1)C(=O)O` (stereo unspecified) yielded a residual activity [1] of 119%, a residual activity [2] of 103% and a residual activity [3] of 103%. It also gave a residual activity [4] of 145%.

In the case of `CCC(Cc1ccc(F)c(C(=O)NCc2ccc(C(F)(F)F)cc2)c1)C(=O)O` (stereo unspecified), the residual activity [9] is reported as 53.8%, the residual activity [1] is reported as 13% and the residual activity [2] is reported as 77.6%. The residual activity [3] was 63.3%, the residual activity [4] was 0% and the residual activity [5] was 38.5%.
